Measurements reported in ChEMBL document CHEMBL1133832, “Synthesis of the first example of a C2-C3/C2'-C3'-endo unsaturated pyrrolo[2,1-c][1,4]benzodiazepine dimer” (Bioorg Med Chem Lett, 2001).
pIC50: −log10 of the molar value.

Legend:
A2780 [1] = test: Dose of required to inhibit growth of cisplatin resistant human ovarian carcinoma (A2780 cisR) cell line with compound free controls as measured by the sulforhodamine B growth delay assay; type: functional, cell-based
A2780 [2] = test: Dose of required to inhibit growth of human ovarian carcinoma (A2780) cell line with compound free controls as measured by the sulforhodamine B growth delay assay; type: functional, cell-based
[3] = Resistance factor (IC50 resistant/ parent); type: functional

| SMILES | pIC50 (A2780 [1]) | pIC50 (A2780 [2]) | RF [3] |
| --- | --- | --- | --- |
| C=C1C[C@H]2C=Nc3cc(OCCCOc4cc5c(cc4OC)C(=O)N4CC(=C)C[C@H]4C=N5)c(OC)cc3C(=O)N2C1 [SJG-136] | 10.62 | 10.65 | 1 |
| COC(=O)CC1=CN2C(=O)c3cc(OC)c(OCCCOc4cc5c(cc4OC)C(=O)N4C=C(CC(=O)OC)C[C@H]4C=N5)cc3N=C[C@@H]2C1 | 7.24 | 8.27 | 10.7 |
| COc1cc2c(cc1OCCCOc1cc3c(cc1OC)C(=O)N1CCC[C@H]1C=N3)N=C[C@@H]1CCCN1C2=O | – | – | 29.2 |
